# Results taken from paper PMC12926040, “ADP-ribose is a competitive inhibitor of methanol dehydrogenases from Bacillus methanolicus” (The Journal of Biological Chemistry, 2025).
# How the values were obtained:
# [1] = biological target: T1, BmMDH2 (Bacillus methanolicus, UniProt I3E949); assay: Effects of NAM, AMP and ADPR (0.3 mM each) on BmMDH2 activity; assay type: biochemical, Bacillus methanolicus MGA3; details: 3 mM NAD+, 40 mM ethanol
# [2] = tested on: BmMDH2 free of metal ions; assay: EDTA treatment of BmMDH2 and recovery of activity with metal ions; assay type: biochemical, Bacillus methanolicus MGA3
# Protocol: To further characterize the specific activity of BmMDH2 containing different metal ions, the purified BmMDH2 was treated with EDTA to remove the metal ions it coordinated during expression or purification. The protein was incubated with 10 equivalents of EDTA in glycine-NaOH buffer (100 mM, pH 9.5) on the ice for 1 hour. Subsequently, the EDTA was removed from the protein using the HiTrap desalting column (Cytiva, CAT#17-1408-01). […] The BmMDH2 free of metal ions at 10 μM was incubated in glycine-NaOH buffer (100 mM, pH 9.5) containing 1 mM of various metal ions on ice for 1 h, followed by the analysis of the activity. […] Overall, the above results indicated the optimum metal ion for BmMDH2 activity was Mn^2+, which was also supplied in the rest of the research.
# Fig. S12 The effect of metal ions on the activity of BmMDH2. a, The effect of metal ions on the activity of BmMDH2. The purified BmMDH2 at 10 μM was incubated with 1 mM of various metal ions on ice for 1 h, the enzyme activities were measured using 50 mM propanol as substrate at 37 °C. The activity of BmMDH2 incubated in the absence of metal ion was taken as 100%. Data are means ± SDs of three measurements. b. The recovery activity of metal ions-free BmMDH2 replenished with various metal ions. The metal ions in BmMDH2 were chelated with EDTA. The activity of BmMDH2 with Mn^2+ replenishment was taken as 100%. Data are means ± SDs of three measurements.
# [3] = biological target: T1, BmMDH2; assay: Effect of metal ions on the activity of purified BmMDH2; assay type: biochemical; details: 1 mM metal ion, on ice 1 h; 50 mM propanol, 37 °C
# Protocol: As a first step, different metal ions were directly incubated with BmMDH2 to determine their impact on its activity. The purified BmMDH2 was diluted to 10 μM in glycine-NaOH buffer (100 mM, pH 9.5) containing 1 mM of various metal ions. After incubation on ice for 1 h, the enzymatic activities were measured in glycine-NaOH buffer (100 mM, pH 9.5) containing 3 mM NAD^+, 1 μM BmMDH2, 0.1 mM various metal ions and 50 mM propanol at 37 °C.
# The purified BmMDH2 at 10 μM was incubated with 1 mM of various metal ions on ice for 1 h, the enzyme activities were measured using 50 mM propanol as substrate at 37 °C. The activity of BmMDH2 incubated in the absence of metal ion was taken as 100%. Data are means ± SDs of three measurements. b. The recovery activity of metal ions-free BmMDH2 replenished with various metal ions. The metal ions in BmMDH2 were chelated with EDTA. The activity of BmMDH2 with Mn^2+ replenishment was taken as 100%. Data are means ± SDs of three measurements.
# [4] = biological target: T1, BmMDH2; assay: BmMDH2 activation by ACT, NADH formation monitored at 340 nm; assay type: biochemical; details: final NAD+ raised by 2.9 mM after […]; 42 μM/min before; 50 nM ACT
# Protocol: Figure 1 ACT-catalyzed conversion of NAD^+ into a compound that activates BmMDH2.A, effect of ACT concentration on BmMDH2 activation. The formation of NADH was monitored at 340 nm, with 100 nM BmMDH2 in glycine-NaOH buffer (pH 9.5) containing 0 to 125 nM ACT, 3 mM NAD^+, 20 mM ethanol, 5 mM MgCl2 and 0.5 mM MnCl2. Data for the initial 10 min are highlighted in the right panel. Data were from a single experiment. B, effects of the following treatments on BmMDH2 activation: preincubated ACT & NAD^+ (red), preincubated ACT & BmMDH2 (blue), ultrafiltrate of preincubated ACT & NAD^+ (green), and ultrafiltrate of ACT (purple) or NAD^+ (cyan) solutions. Preincubations were performed in glycine-NaOH buffer (pH 9.5) with 5 mM MgCl2 and 0.5 mM MnCl2 at 25 °C for 30 min. Ethanol, BmMDH2, or NAD^+ was subsequently added to achieve final concentrations of 10 nM ACT, 20 mM ethanol, 3 mM NAD^+, and 200 nM BmMDH2. For ultrafiltration, preincubated samples were filtered (10 kDa cutoff, Millipore), and the flowthrough was used for activation assays. Data represent means ± SD (n = 3). C, effect of NAD^+ concentration on BmMDH2 activation. Activity was measured using 100 nM BmMDH2 in glycine-NaOH buffer (pH 9.5) with 50 nM ACT, 0 to 20 mM NAD^+, 5 mM MgCl2, and 0.5 mM MnCl2. Data were from a single experiment. D, time-course of BmMDH2 activation. Reaction were performed in 200 μl glycine-NaOH buffer (100 mM, pH 9.5) with 5 mM MgCl2, 0.5 mM MnCl2, 0.25 mM NAD^+, 0.1 μM BmMDH2, 20 mM ethanol, and 50 nM ACT. Fresh NAD^+ (4 μl, 150 mM) was added twice during the reaction. Data were from a single experiment. E, catalytic rates of BmMDH2 were calculated from the slopes of the data in panel D. Additional replicates of the experiments shown in panels A, C, and D are provided in Fig. S4. […]
# The catalytic processes of MDHs were monitored by measuring NADH absorbance at 340 nm using a Tecan SPARK UV-Vis plate reader (Tecan Austria GmbH) at 25 °C. […]
# [5] = Hydrolysis of NAD+ in glycine-NaOH buffer pH 9.5 at 25 °C (HPLC); assay type: physicochemical
# Protocol: NAD^+ (3 mM) was incubated with (black) or without (blue) 10 nM ACT in glycine-NaOH buffer (pH 9.5, 5 mM MgCl2) at 25 °C for 60 min. Unincubated NAD^+ (red) served as a control. Compounds were identified via LC-MS. […] Data are presented as means ± SDs (n = 3). C, degradation of ACT-treated NAD^+ in glycine-NaOH buffer (pH 9.5) at 25 °C. ACT was removed by ultrafiltration before analysis. D, ADPR content in NAD^+ from different suppliers. […] E, schematic of the reactions during ACT incubation with NAD^+.
# Fig. S5 The hydrolysis rate of NAD^+ at 25 °C. NAD^+ was dissolved in glycine-NaOH buffer (pH 9.5, 100 mM) at a concentration of 3 mM and incubated at 25 °C. Samples were withdrawn at various time intervals and analyzed by HPLC. The residual NAD^+ was quantified according to the standard curves of NAD^+.
# [6] = tested on: NC(=O)c1ccc[n+]([C@@H]2O[C@H](COP(=O)(O)OP(=O)(O)OC[C@H]3O[C@@H](n4cnc5c(N)ncnc54)[C@H](O)[C@@H]3O)[C@@H](O)[C@H]2O)c1; assay: purified protein, by the assay type; details: other: in the presence of 10 nM ACT, 40 mM ethanol, pH 8.0, 25.0 °C
# [7] = biological target: NAD-dependent methanol dehydrogenase 2 from Bacillus methanolicus MGA3 (BmMDH2) (Bacillus methanolicus MGA3); assay: crystal structure; BmMDH2 apo (2.8 Å), with ADPR (2.6 Å) and with NAD+ (2.6 Å); sitting-drop vapor diffusion at 18 °C, 30 mg/ml protein, Bis-Tris propane pH 6.0-7.0, PEG 3350
# [8] = biological target: activator protein ACT from Bacillus methanolicus MGA3 (Nudix hydrolase, ADPRase) (Bacillus methanolicus MGA3) (UniProt Q8KP10); assay: crystal structure; apo-ACT in two conformations of loop 132-146 (2.0 and 2.4 Å); 90 mg/ml protein in 20 mM Tris-HCl pH 7.5, 150 mM NaCl; reservoir MES pH 5.2 with PEG 400, or MMT pH 5.0 with PEG 1500
# T1 sequence (I3E949 entry or part of it): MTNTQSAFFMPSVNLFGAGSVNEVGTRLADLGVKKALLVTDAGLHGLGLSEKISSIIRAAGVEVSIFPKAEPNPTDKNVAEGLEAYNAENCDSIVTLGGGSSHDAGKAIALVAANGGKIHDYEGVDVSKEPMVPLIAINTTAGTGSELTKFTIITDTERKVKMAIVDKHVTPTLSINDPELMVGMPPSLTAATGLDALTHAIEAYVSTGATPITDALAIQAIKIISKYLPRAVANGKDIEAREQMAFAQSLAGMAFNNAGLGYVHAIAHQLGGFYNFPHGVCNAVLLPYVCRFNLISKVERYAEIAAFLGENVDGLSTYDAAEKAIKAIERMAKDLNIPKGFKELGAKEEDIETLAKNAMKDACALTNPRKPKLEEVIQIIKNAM
compound,measurement,setting,value
Nc1ncnc2c1ncn2[C@@H]1O[C@H](COP(=O)(O)O)[C@@H](O)[C@H]1O [AMP],effect on BmMDH2 activity (in words),[1],Neither AMP nor NAM significantly influenced activation
[Ca+2] [Ca^2+],recovery of activity of metal-free BmMDH2,"[2]; 1 mM metal ion, on ice 1 h",didn’t restore the activity
same,effect of metal ion on BmMDH2 activity,[3],slightly decreased
[Co+2] [Co^2+],effect of metal ion on BmMDH2 activity,[3],significantly enhanced
[Cu+2] [Cu^2+],recovery of activity of metal-free BmMDH2,"[2]; 1 mM metal ion, on ice 1 h",didn’t restore the activity
same,effect of metal ion on BmMDH2 activity,[3],significantly inhibited
"O=C(O)CN(CCN(CC(=O)O)CC(=O)O)CC(=O)O [EDTA, reference compound]",BmMDH2 activity after EDTA treatment,"[2]; 10 equivalents of EDTA, pH 9.5, on ice 1 hour",completely lost
[Fe+2] [Fe^2+],effect of metal ion on BmMDH2 activity,[3],negligible effect
[Mg+2] [Mg^2+],recovery of activity of metal-free BmMDH2,"[2]; 1 mM metal ion, on ice 1 h",didn’t restore the activity
same,effect of metal ion on BmMDH2 activity,[3],slightly decreased
[Mn+2] [Mn^2+],activity of metal-free BmMDH2 replenished with metal ion,"[2]; 1 mM metal ion, on ice 1 h",1.04 ± 0.02 U/mg
same,effect of metal ion on BmMDH2 activity,[3],significantly enhanced
NC(=O)c1ccc[n+]([C@@H]2O[C@H](COP(=O)(O)OP(=O)(O)OC[C@H]3O[C@@H](n4cnc5c(N)ncnc54)[C@H](O)[C@@H]3O)[C@@H](O)[C@H]2O)c1 [NAD^+],catalytic rate of activated BmMDH2 after additional NAD+ dose,[4],4.8 µM/min
same,half-life at 3 mM,"[5]; glycine-NaOH buffer, glycine-NaOH pH 9.5, 25 °C, read-out: t1/2 of NAD+ hydrolysis (converted)",64 h
same,rate constant for NAD+ hydrolysis,"[5]; glycine-NaOH pH 9.5, 25 °C",0.011 h⁻¹
same,increase of ADPR and NAM on incubation of NAD+,"[5]; glycine-NaOH pH 9.5, 60 min",about 40%
"NC(=O)c1cccnc1 [NAM, nicotinamide]",effect on BmMDH2 activity (in words),[1],Neither AMP nor NAM significantly influenced activation
[Ni+2] [Ni^2+],effect of metal ion on BmMDH2 activity,[3],slightly decreased
[Zn+2] [Zn^2+],recovery of activity of metal-free BmMDH2,"[2]; 1 mM metal ion, on ice 1 h",didn’t restore the activity
same,effect of metal ion on BmMDH2 activity,[3],significantly inhibited
BmMDH2S101G (Bacillus methanolicus MGA3; S101G),Km,[6],6.2 ± 0.8 mM
NAD-dependent methanol dehydrogenase 2 from Bacillus methanolicus MGA3 (BmMDH2) (enzyme),stoichiometry N,[7],10
"activator protein ACT from Bacillus methanolicus MGA3 (Nudix hydrolase, ADPRase) (from UniProt Q8KP10 1-183) (enzyme)",stoichiometry N,[8],2
